Measurements from patent publication US12545677B2, “Compounds useful as factor XIa inhibitors” (JANSSEN PHARMACEUTICA NV, priority 2020, dated 2026).

Legend:
[1] = test system: mitochondrial respiration in HepG2 cells; assay: Seahorse assay, mitochondrial respiration; type: cell-based; conditions: Homo sapiens, 0.3-100 μM, read-out: IC50, mitochondrial respiration as measured by spare respiratory capacity
Method: Biological Example 11: Seahorse Assay
The purpose of this assay was to investigate the effect of the compound of formula (I-A) on mitochondrial respiration in HepG2 cells using the Agilent Seahorse XFe96 analyzer. Cell viability was also determined in HepG2 cells in parallel to the Seahorse assay.
Measurement of mitochondrial respiration in HepG2 Cells: Compound doses were prepared in 100% DMSO and subsequently diluted in assay medium to achieve final solvent concentration of 0.10%. HepG2 cells were plated overnight in a Seahorse plate (Agilent Technologies, Santa Clara, California) at a density of 40,000 cells/well in EMEM containing 10% HI FBS and 1× Pen/Strep cell culture. […] Mitochondrial respiration, quantitated as oxygen consumption rate (OCR), was measured on an Agilent Seahorse XFe96 analyzer using the Seahorse Mito Stress test assay as per the manufacturer's protocol. […]
Data Analyses: Mitochondrial SRC (spare respiratory capacity) was calculated by subtracting the rate of the basal respiration from the rate of the maximal respiration. […] All experiments were run in triplicate and the mean and standard deviations were calculated for each test concentration. […]
IC50 values were determined by nonlinear regression and fitting of the dose response curves to a […] equation with variable slope (Hill coefficient): […]

[2] = test system: activated partial thromboplastin time (aPTT); assay: Ex vivo clotting assay (aPTT); type: in vivo, New Zealand White (NZW) rabbits; conditions: for ex vivo aPTT Onset of Clotting Time, mean: n 4, in s (unit assumed)
Excerpt: The following coagulation reagents were purchased from Diagnostica Stago (Parsippany, NJ): Thrombin 10 (Catalog No: 00611, lot No: 251851) for thrombin time (TT), Neoplastine® Cl 5 (Catalog No: 00666, lot No: 01504) for prothrombin time (PT), C.K. Prest® 5 (Catalog No: 00597, lot No: 112768) and CaCl2 (0.025 M, Catalog No: 00367, Lot No: 254158) for activated partial thromboplastin time (aPTT). Coagulometer STA rt4 (Diagnotica Stago) was used for ex vivo clotting time analysis.
Blood samples (1 mL each) were collected in 3.2% sodium citrate (BD Biosciences, Franklin Lakes, NJ) before and after shunt set up from the femoral artery cannula and centrifuged at 2500 g for 15 minutes at 20° C. The resulting platelet poor plasma (PPP) was transferred into clean tubes and stored at −80° C. until use.
Coagulation assays were performed with PPP in a 4 channel coagulometer STA rt4 (Diagnotica Stago). For the aPTT assay, 50 μl C.K. Preset reagent was incubated with 50 μl PPP for 3 min at 37° C. in a cuvette, and coagulation was initiated by adding 50 μl 25 mM CaCl2). The onset of clotting was recorded as the coagulation time.
Statistical analysis: All the data are expressed as mean±SEM. Statistical analyses were performed using GraphPad Prism software (v8.0). Significance was defined at p<0.05 as determined by one-way ANOVA. Tukey's test was used for multiple comparisons.

[3] = 0.15 + 0.13 mg/kg initial + maintenance, 20 min post initial dose
[4] = 0.15 + 0.13 mg/kg initial + maintenance, 60 min post initial dose
[5] = 0.5 + 0.43 mg/kg initial + maintenance, 20 min post initial dose
[6] = 0.5 + 0.43 mg/kg initial + maintenance, 60 min post initial dose
[7] = 1.5 + 1.3 mg/kg initial + maintenance, 20 min post initial dose
[8] = 1.5 + 1.3 mg/kg initial + maintenance, 60 min post initial dose
[9] = 5.0 + 4.3 mg/kg initial + maintenance, 20 min post initial dose
[10] = 5.0 + 4.3 mg/kg initial + maintenance, 60 min post initial dose
[11] = 15.0 + 13.0 mg/kg initial + maintenance, 20 min post initial dose
[12] = 15.0 + 13.0 mg/kg initial + maintenance, 60 min post initial dose

In the case of `O=C1C=C(c2c(-n3cnnn3)ccc(Cl)c2F)C[C@H]2CC[C@@H](c3ncc(-c4ccnc(CO)c4F)[nH]3)N12` [Compound of formula (I-A), (3S,8aR)-7-(3-Chloro-2-fluoro-6-(1H-tetrazol-1-yl)phenyl)-3-(5-(3-fluoro-2-(hydroxymethyl)pyridin-4-yl)-1H-imidazol-2-yl)-2,3,8,8a-tetrahydroindolizin-5(1H)-one], the IC50 [1] is reported as over 100 µM, the “ex vivo aPTT, Fold vs baseline” value [2, 3] is reported as 1.37 and the “ex vivo aPTT Onset of Clotting Time, mean” value (shortened to “ex vivo aPTT Onset”) [2, 3] is reported as 28.00. For the same compound, the “ex vivo aPTT, Fold vs baseline” value [2, 4] was 1.17, the “ex vivo aPTT Onset” value [2, 4] was 23.88 and the “ex vivo aPTT, Fold vs baseline” value [2, 5] was 1.24. For the same compound, the “ex vivo aPTT Onset” value [2, 5] was 25.40, the “ex vivo aPTT, Fold vs baseline” value [2, 6] was 1.02 and the “ex vivo aPTT Onset” value [2, 6] was 20.95. The “ex vivo aPTT, Fold vs baseline” value [2, 7] was 1.59, the “ex vivo aPTT Onset” value [2, 7] was 32.50 and the “ex vivo aPTT, Fold vs baseline” value [2, 8] was 1.37. For the same compound, the “ex vivo aPTT Onset” value [2, 8] was 28.05, the “ex vivo aPTT, Fold vs baseline” value [2, 9] was 2.32 and the “ex vivo aPTT Onset” value [2, 9] was 47.40. The “ex vivo aPTT, Fold vs baseline” value [2, 10] was 2.14, the “ex vivo aPTT Onset” value [2, 10] was 43.75 and the “ex vivo aPTT, Fold vs baseline” value [2, 11] was 3.40. The “ex vivo aPTT Onset” value [2, 11] was 69.6, the “ex vivo aPTT, Fold vs baseline” value [2, 12] was 3.27 and the “ex vivo aPTT Onset” value [2, 12] was 67.00.
